Like-named read-outs stand apart in the source and are kept apart here.
Experiments:
[1] = molecular target: acyl-CoA:cholesterol acyltransferase (ACAT); assay: in vitro ACAT inhibition (LAI): radiolabeled cholesterol oleate formed from radiolabeled oleic acid in rat liver microsomes; assay type: biochemical; conditions: read-out: LAI (IC50, concentration of test compound required to inhibit the activity of the enzyme by 50%)
Description: The test assesses the ability of a test compound to inhibit the acylation of cholesterol by oleic acid by measuring the amount of radiolabeled cholesterol oleate formed from radiolabeled oleic acid in a tissue preparation containing rat liver microsomes.

[2] = test system: cholesterol; assay: APCC in vivo screen: rats on high fat, high cholesterol diet (PCC), blood cholesterol analysis; set-up: species or system male Sprague-Dawley rats
Description: In one in vivo screen designated APCC, male Sprague-Dawley rats (200 to 225 g) were randomly divided into treatment groups and dosed at 4 PM with either vehicle (CMC/Tween) or suspensions of compounds in vehicle. The normal chow diet was then replaced with a high fat, high cholesterol diet (designated PCC) containing 0.5% cholic acid. The rats consumed this diet ad libitum during the night and were sacrificed at 8 AM to obtain blood samples for cholesterol analysis using standard procedures. Statistical differences between mean cholesterol values for the same vehicle were determined using analysis of variance followed by Fisher's least significant test.

Compound	IC50 [1] [µM]	further results
CC(C)c1cc(C(C)C)c(CP(N)(=O)OCc2ccccc2)c(C(C)C)c1 (stereo not drawn) [Monobenzyl, 2,4,6-triisopropylbenzylphosphonamide]	–	IC50 ([1]; rat liver microsomes): 3.6 µM; APCC ([2]; dose 10 mg/kg, rats, single dose at 4 PM, PCC diet overnight, blood cholesterol at 8 AM): -4
COP(=O)(Cc1c(C(C)C)cc(C(C)C)cc1C(C)C)NC(=O)Cc1c(C(C)C)cccc1C(C)C (stereo not drawn) [iPr H OCH3 CH2, Phosphonamidic acid, N-[[2,6-bis(1-methyl-ethyl)phenyl)acetyl]-P-[[2,4,6-tris(1-methyl-ethyl)phenyl)methyl]-, methyl ester]	0.29	APCC ([2]; rat, in vivo, 3 mg/kg): -44
CC(C)c1cc(C(C)C)c(CC(=O)NP(=O)(Oc2c(C(C)C)cccc2C(C)C)c2ccccc2)c(C(C)C)c1 (stereo not drawn) [H iPr Ph O, Phosphonamidic acid, P-phenyl-N-[[2,4,6-tris(1-methylethyl)phenyl]acetyl]-,2,6-bis(1-methylethyl)phenyl ester]	2.5	APCC ([2]; rat, in vivo, 10 mg/kg): -25
COP(=O)(NC(=O)Cc1c(C(C)C)cc(C(C)C)cc1C(C)C)Oc1c(C(C)C)cccc1C(C)C (stereo not drawn) [iPr H OCH3 O, [(2,4,6-Triisopropyl-phenyl)-acetyl]-phosphoramidic acid 2,6-diisopropyl-phenyl ester methyl ester]	4.8	APCC ([2]; rat, in vivo, 1 mg/kg): -18
COP(=O)(Cc1c(C(C)C)cccc1C(C)C)NC(=O)Cc1c(C(C)C)cc(C(C)C)cc1C(C)C (stereo not drawn) [H iPr OCH3 CH2, Phosphonamidic acid, P-[[2,6-bis(1-methylethyl)phenyl]methyl]-N-[[2,4,6-tris(1-methylethyl)phenyl]acetyl]-, methyl ester]	1.2	–
COP(=O)(Cc1c(C(C)C)cc(C(C)C)cc1C(C)C)NC(=O)Cc1c(C(C)C)cc(C(C)C)cc1C(C)C (stereo not drawn) [iPr iPr OCH3 CH2, Phosphonamidic acid, N-[[2,4,6-tris(1-methylethyl)phenyl]acetyl]-P-[[2,4,6-tris(1-methylethyl)phenyl]methyl]-, methyl ester]	0.74	–
COP(=O)(NC(=O)Cc1c(C(C)C)cc(C(C)C)cc1C(C)C)Oc1c(C(C)C)cc(Cl)cc1C(C)C (stereo not drawn) [Cl iPr OCH3 O, Phosphoramidic acid, [[2,4,6-tris(1-methylethyl)phenyl]acetyl]-, 4-chloro-2,6-bis(1-methylethyl)phenyl methyl ester]	> 5	APCC ([2]; rat, in vivo, 10 mg/kg): -12

— patent US5807846A, “Phosphonamide ACAT inhibitors” (Warner-Lambert Company, priority 1997, dated 1998)
